The Kinase Knowledgebase extract (Sharma et al. 2016)

Molecular target: PIK3CD (Human) (UniProt O00329)
Assay: Assessment of PIK3CD Kinase Activity (Scintillation Proximity Assay)

Sequence of PIK3CD (Human) (O00329 whole entry, looked up): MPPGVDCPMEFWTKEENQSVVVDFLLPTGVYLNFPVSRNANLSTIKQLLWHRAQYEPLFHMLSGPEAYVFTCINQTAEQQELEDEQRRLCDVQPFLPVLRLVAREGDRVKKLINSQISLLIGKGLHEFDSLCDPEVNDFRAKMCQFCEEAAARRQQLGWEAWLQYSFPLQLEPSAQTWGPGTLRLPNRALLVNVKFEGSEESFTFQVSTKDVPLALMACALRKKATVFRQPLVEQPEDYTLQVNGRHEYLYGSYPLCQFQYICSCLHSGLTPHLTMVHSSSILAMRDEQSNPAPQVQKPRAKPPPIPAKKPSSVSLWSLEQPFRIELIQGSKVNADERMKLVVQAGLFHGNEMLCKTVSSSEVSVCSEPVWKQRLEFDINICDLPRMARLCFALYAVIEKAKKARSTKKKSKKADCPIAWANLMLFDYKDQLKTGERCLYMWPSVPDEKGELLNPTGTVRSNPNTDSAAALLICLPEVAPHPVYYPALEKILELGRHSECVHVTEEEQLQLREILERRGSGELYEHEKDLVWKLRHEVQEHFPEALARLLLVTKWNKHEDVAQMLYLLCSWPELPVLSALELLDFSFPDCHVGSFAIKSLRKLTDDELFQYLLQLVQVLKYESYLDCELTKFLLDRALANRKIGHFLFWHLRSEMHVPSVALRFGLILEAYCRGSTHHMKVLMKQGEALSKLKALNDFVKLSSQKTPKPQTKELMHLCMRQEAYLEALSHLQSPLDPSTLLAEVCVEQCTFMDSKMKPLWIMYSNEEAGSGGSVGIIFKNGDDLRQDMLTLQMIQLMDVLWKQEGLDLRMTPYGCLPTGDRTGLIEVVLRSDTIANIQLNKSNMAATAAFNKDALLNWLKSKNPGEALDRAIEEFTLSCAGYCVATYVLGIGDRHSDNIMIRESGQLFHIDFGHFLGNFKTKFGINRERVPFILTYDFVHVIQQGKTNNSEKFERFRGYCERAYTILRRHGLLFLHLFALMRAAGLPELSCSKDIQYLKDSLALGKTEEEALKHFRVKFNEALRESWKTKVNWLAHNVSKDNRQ

Row | SMILES | IC50 [µM]
1 | CCOc1c(C(C)n2nc(-c3cn[nH]c3)c3c(N)ncnc32)cc(Cl)c(C)c1-c1ccc(C(=O)N(C)C)nc1 (configuration not stated) | ≤ 0.01
2 | COc1c(C(C)n2nc(-c3cnn(C)c3)c3c(N)ncnc32)cc(Cl)c(C)c1C1CN(CC#N)C1 (configuration not stated) | ≤ 0.01
3 | COc1c(C(C)n2nc(C)c3c(N)ncnc32)cc(Cl)c(C)c1-c1ccc(C(=O)N(C)C)c(F)c1 (configuration not stated) | ≤ 0.01
4 | COc1c(C(C)n2nc(C)c3c(N)ncnc32)cc(Cl)c(C#N)c1-c1ccc(C(=O)N(C)C)nc1 (configuration not stated) | ≤ 0.01
5 | COc1c(C(C)n2nc(C)c3c(N)ncnc32)cc(Cl)c(C)c1-c1cnn(C2CCN(C(C)=O)CC2)c1 (configuration not stated) | ≤ 0.01
6 | COc1c(C(C)n2nc(C)c3c(N)ncnc32)cc(Cl)c(C#N)c1C1CN(C(C)CO)C1 (configuration not stated) | ≤ 0.01
7 | CCOc1c(C(C)n2cc(C)c3c(N)ncnc32)cc(Cl)c(C#N)c1C1CN(C[C@H](C)O)C1 (some centres not stated) | ≤ 0.01
8 | COc1c(C(C)n2ccc(=O)c3c(N)ncnc32)cc(Cl)c(C)c1-c1cncc(C#N)c1 (configuration not stated) | ≤ 0.01
9 | CCOc1c(C(C)n2nc(-c3cnc(N)nc3)c3c(N)ncnc32)cc(Cl)c(C)c1-c1ccc(C(=O)N(C)C)nc1 (configuration not stated) | ≤ 0.01
10 | COc1c(C(C)n2nc(C)c3c(N)ncnc32)cc(C#N)c(C)c1-c1cnn(C)c1 (configuration not stated) | 0.01 to 0.05
11 | CCOc1c(C(C)n2nc(-c3cccc(F)c3)c3c(N)ncnc32)cc(Cl)c(C)c1-c1ccc(C(=O)N(C)C)nc1 (configuration not stated) | ≤ 0.01
12 | COc1c(C(C)n2nc(C)c3c(N)ncnc32)cc(Cl)c(C)c1-c1cncc(C(=O)N(C)C)c1 (configuration not stated) | ≤ 0.01
13 | CCOc1c(C(C)n2nc(CF)c3c(N)ncnc32)cc(Cl)c(C)c1-c1ccc(C(=O)N(C)C)nc1 (configuration not stated) | ≤ 0.01
14 | COc1c(C(C)n2nc(C)c3c(N)ncnc32)cc(Cl)c(C#N)c1C1CN(C2CCC2)C1 (configuration not stated) | ≤ 0.01
15 | COc1c(C(C)n2nc(C)c3c(N)ncnc32)cc(Cl)c(C)c1C1CN(C(=O)[C@@H](C)O)C1 (some centres not stated) | ≤ 0.01
16 | CCOc1c(C(C)n2nc(CNC)c3c(N)ncnc32)cc(Cl)c(C)c1-c1ccc(C(=O)N(C)C)nc1 (configuration not stated) | 0.05 to 0.2
17 | CCNC(=O)c1c(C)c(Cl)cc(C(C)n2nc(-c3cn[nH]c3)c3c(N)ncnc32)c1OCC (configuration not stated) | ≤ 0.01
18 | CCOc1c(C(C)n2nc(C)c3c(N)ncnc32)cc(Cl)c(C#N)c1-c1ccnc(C(=O)N(C)C)c1 (configuration not stated) | ≤ 0.01
19 | COc1c(C(C)n2nc(C)c3c(N)ncnc32)cc(Cl)c(C)c1-c1ccc(OCCO)nc1 (configuration not stated) | ≤ 0.01

Row | SMILES | IC50 [µM]
20 | COc1c(C(C)n2nc(C)c3c(N)ncnc32)cc(Cl)c(C#N)c1C1CN(C(C)=O)C1 (configuration not stated) | ≤ 0.01
21 | COc1c(C(C)n2nc(C(F)F)c3c(N)ncnc32)cc(Cl)c(F)c1C1CN(C[C@H](C)O)C1 (some centres not stated) | ≤ 0.01
22 | CCOc1c(C(C)n2nc(-c3ccncc3)c3c(N)ncnc32)cc(Cl)c(C)c1-c1ccc(C(=O)N(C)C)nc1 (configuration not stated) | ≤ 0.01
23 | CCOc1c(C(C)n2ccc(=O)c3c(N)ncnc32)cc(Cl)c(C#N)c1-c1cncc(S(C)(=O)=O)c1 (configuration not stated) | ≤ 0.01
24 | COc1c([C@H](C)n2nc(C)c3c(N)ncnc32)cc(Cl)c(C#N)c1C1CN(C[C@@H](C)O)C1 | ≤ 0.01
25 | COc1c(C(C)n2nc(C)c3c(N)ncnc32)cc(Cl)c(C)c1C1CN(C(CO)C(F)(F)F)C1 (configuration not stated) | ≤ 0.01
26 | COc1c(C(C)n2nc(C)c3c(N)ncnc32)cc(Cl)c(C)c1C1CN(C(C)C#N)C1 (configuration not stated) | ≤ 0.01
27 | COc1c(C(C)n2nc(C)c3c(N)ncnc32)cc(Cl)c(Cl)c1C1CN(C[C@@H](C)O)C1 (some centres not stated) | ≤ 0.01
28 | COc1c(C(C)n2nc(C)c3c(N)ncnc32)cc(Cl)c(Cl)c1C1CN(CC#N)C1 (configuration not stated) | ≤ 0.01
29 | CCOc1c(C(C)n2nc(C)c3c(N)ncnc32)cc(Cl)c(C#N)c1-c1ccc(-c2cnn(C)n2)nc1 (configuration not stated) | ≤ 0.01
30 | CCOc1c(C(C)n2nc(C#C[C@@H](C)O)c3c(N)ncnc32)cc(Cl)c(C)c1-c1ccc(C(=O)N(C)C)nc1 (some centres not stated) | ≤ 0.01
31 | CCOc1c(C(C)n2nc(C)c3c(N)ncnc32)cc(C)c(C#N)c1-c1ccc(C(=O)N(C)C)nc1 (configuration not stated) | ≤ 0.01
32 | COc1c(C(C)n2nc(C)c3c(N)ncnc32)cc(Cl)c(C)c1-c1ccnc(C(=O)N(C)C)c1 (configuration not stated) | ≤ 0.01
33 | COc1c(C(C)n2ccc(=O)c3c(N)ncnc32)cc(Cl)c(C)c1-c1ccc(C(=O)N(C)C)nc1 (configuration not stated) | ≤ 0.01
34 | CCOc1c(C(C)n2nc(C#C[C@H](C)O)c3c(N)ncnc32)cc(Cl)c(C)c1-c1ccc(C(=O)N(C)C)nc1 (some centres not stated) | ≤ 0.01
35 | COc1c(C(C)n2nc(C)c3c(N)ncnc32)cc(Cl)c(C#N)c1C1CN(C(=O)N(C)C)C1 (configuration not stated) | ≤ 0.01
36 | COCCN1CC(c2c(C)c(Cl)cc(C(C)n3nc(C)c4c(N)ncnc43)c2OC)C1 (configuration not stated) | ≤ 0.01
37 | COc1c(C(C)n2nc(C)c3c(N)ncnc32)cc(Cl)c(Cl)c1C1CN(CCO)C1 (configuration not stated) | ≤ 0.01
38 | COc1c(C(C)n2nc(C)c3c(N)ncnc32)cc(C)c(C#N)c1C1CN(CC(C)(C)O)C1 (configuration not stated) | ≤ 0.01

Row | SMILES | IC50 [µM]
39 | COc1c(C(C)n2nc(C)c3c(N)ncnc32)cc(Cl)c(C#N)c1C1CN(C(=O)C2CC2)C1 (configuration not stated) | ≤ 0.01
40 | COc1c(C(C)n2nc(C)c3c(N)ncnc32)cc(Cl)c(C)c1-c1ccc(C(=O)N(C)CCO)nc1 (configuration not stated) | ≤ 0.01
41 | CCOc1c(C(C)n2nc(C)c3c(N)ncnc32)cc(Cl)c(C)c1-c1ccc(C(=O)N(C)C)nc1 (configuration not stated) | ≤ 0.01
42 | COc1c(C(C)n2nc(C)c3c(N)ncnc32)cc(Cl)c(C#N)c1C1CN(S(=O)(=O)C2CC2)C1 (configuration not stated) | ≤ 0.01
43 | COc1c(C(C)n2nc(C)c3c(N)ncnc32)cc(Cl)c(C#N)c1C1CN(C[C@H](C)O)C1 (some centres not stated) | ≤ 0.01
44 | COc1c(C(C)n2nc(C)c3c(N)ncnc32)cc(Cl)c(C)c1C1CN(C(=O)C2(O)CC2)C1 (configuration not stated) | ≤ 0.01
45 | COc1c(C(C)n2ncc3c(N)ncnc32)cc(Cl)c(C)c1-c1ccnc(C(=O)N(C)C)c1 (configuration not stated) | 0.01 to 0.05
46 | COc1c(C(C)n2cc(C)c(=O)c3c(N)ncnc32)cc(Cl)c(C)c1-c1ccc(C(=O)N(C)C)nc1 (configuration not stated) | ≤ 0.01
47 | CCOc1c(C(C)n2nc(-c3ccn(C)n3)c3c(N)ncnc32)cc(Cl)c(C)c1-c1ccc(C(=O)N(C)C)nc1 (configuration not stated) | ≤ 0.01
48 | CCOc1c(C(C)n2nc(C)c3c(N)ncnc32)cc(Cl)c(C)c1-c1ccc(C(=O)N(C)C)cn1 (configuration not stated) | ≤ 0.01
49 | COc1c(C(C)n2nc(C)c3c(N)ncnc32)cc(Cl)c(C#N)c1C1CN(CC(C)C)C1 (configuration not stated) | ≤ 0.01
50 | CCOc1c(C(C)n2nc(C)c3c(N)ncnc32)cc(C)c(C#N)c1-c1ccnc(S(C)(=O)=O)c1 (configuration not stated) | ≤ 0.01
51 | COc1c(C(C)n2nc(C)c3c(N)ncnc32)cc(Cl)c(C#N)c1C1CN(CC(C)(C)O)C1 (configuration not stated) | ≤ 0.01
52 | COc1c(C(C)n2ccc3c(N)ncnc32)cc(Cl)c(C)c1-c1ccc(C(=O)N(C)C)nc1 (configuration not stated) | 0.2 to 0.5
53 | CCOc1c(C(C)n2nc(CC#N)c3c(N)ncnc32)cc(Cl)c(C)c1-c1ccc(C(=O)N(C)C)nc1 (configuration not stated) | ≤ 0.01
54 | CCOc1c(C(C)n2ccc(=O)c3c(N)ncnc32)cc(Cl)c(C)c1C1CN(C(C)C)C1 (configuration not stated) | ≤ 0.01
55 | COc1c(C(C)n2nc(C)c3c(N)ncnc32)cc(Cl)c(C)c1C1CN(CC(C)C#N)C1 (configuration not stated) | ≤ 0.01
56 | CCOc1c(C(C)n2nc(CN(C)C)c3c(N)ncnc32)cc(Cl)c(C)c1-c1ccc(C(=O)N(C)C)nc1 (configuration not stated) | 0.05 to 0.2
57 | COc1c(C(C)n2nc(C(F)F)c3c(N)ncnc32)cc(C#N)c(C)c1C1CN(C[C@@H](C)O)C1 (some centres not stated) | ≤ 0.01

Continued, values first:

Row | IC50 [µM] | SMILES
58 | ≤ 0.01 | CCOc1c(C(C)n2nc(C)c3c(N)ncnc32)cc(Cl)c(C#N)c1C1CN(C(C)(C)CO)C1 (configuration not stated)
59 | ≤ 0.01 | COc1c(C(C)n2nc(C)c3c(N)ncnc32)cc(Cl)c(C#N)c1C1CN(CC2CC2)C1 (configuration not stated)
60 | ≤ 0.01 | CCOC(=O)N1CC(c2c(C#N)c(Cl)cc(C(C)n3nc(C)c4c(N)ncnc43)c2OCC)C1 (configuration not stated)
61 | ≤ 0.01 | CCOc1c(C(C)n2nc(C)c3c(N)ncnc32)cc(C)c(C#N)c1C1CN(C(C)C)C1 (configuration not stated)
62 | ≤ 0.01 | COc1c(C(C)n2nc(C)c3c(N)ncnc32)cc(Cl)c(C)c1C1CN(C(C)=O)C1 (configuration not stated)
63 | ≤ 0.01 | COc1c(C(C)n2nc(C)c3c(N)ncnc32)cc(Cl)c(C)c1C1CN(CCO)C1 (configuration not stated)
64 | ≤ 0.01 | COc1c(C(C)n2nc(C)c3c(N)ncnc32)cc(Cl)c(F)c1C1CN(CCO)C1 (configuration not stated)
65 | ≤ 0.01 | COc1c(C(C)n2nc(C)c3c(N)ncnc32)cc(Cl)c(Cl)c1C1CN(C2COC2)C1 (configuration not stated)
66 | ≤ 0.01 | CCNC(=O)N1CC(c2c(C#N)c(Cl)cc(C(C)n3nc(C)c4c(N)ncnc43)c2OCC)C1 (configuration not stated)
67 | ≤ 0.01 | COc1c(C(C)n2nc(C)c3c(N)ncnc32)cc(Cl)c(C)c1C1CN(C[C@H](C)O)C1 (some centres not stated)
68 | ≤ 0.01 | CCOc1c(C(C)n2nc(C(F)F)c3c(N)ncnc32)cc(Cl)c(F)c1C1CN(C)C1 (configuration not stated)
69 | ≤ 0.01 | CCOc1c(C(C)n2nc(C)c3c(N)ncnc32)cc(Cl)c(C)c1C1CNC(=O)C1 (configuration not stated)
70 | ≤ 0.01 | CCC(C)N1CC(c2c(C)c(Cl)cc(C(C)n3nc(C)c4c(N)ncnc43)c2OC)C1 (configuration not stated)
71 | ≤ 0.01 | CCOc1c(C(C)n2nc(C)c3c(N)ncnc32)cc(Cl)c(C#N)c1C1CN(C(C)CO)C1 (configuration not stated)
72 | ≤ 0.01 | CCOc1c(C(C)n2nc(C)c3c(N)ncnc32)cc(Cl)c(F)c1C1COC(=O)N1 (configuration not stated)
73 | ≤ 0.01 | CCOc1c(C(C)n2nc(C)c3c(N)ncnc32)cc(Cl)c(C#N)c1C1CN(C(=O)NC(C)(C)C)C1 (configuration not stated)
74 | ≤ 0.01 | CCOc1c(C(C)n2nc(C(F)F)c3c(N)ncnc32)cc(Cl)c(F)c1C1CN(CC(C)(C)O)C1 (configuration not stated)
75 | ≤ 0.01 | CCOc1c(C(C)n2nc(C)c3c(N)ncnc32)cc(Cl)c(C#N)c1C1CN(C(=O)CC)C1 (configuration not stated)
76 | ≤ 0.01 | CCOc1c(C(C)n2nc(C)c3c(N)ncnc32)cc(Cl)c(C#N)c1C1CN(CCC(F)(F)F)C1 (configuration not stated)
77 | ≤ 0.01 | CCOc1c(C(C)n2nc(C)c3c(N)ncnc32)cc(Cl)c(C#N)c1C1CN(C(=O)OC(C)C)C1 (configuration not stated)
78 | ≤ 0.01 | COc1c(C(C)n2nc(C)c3c(N)ncnc32)cc(Cl)c(C)c1CC#N (configuration not stated)
79 | ≤ 0.01 | CCOc1c(C(C)n2nc(C)c3c(N)ncnc32)cc(Cl)c(F)c1C1CN(CC(N)=O)C1 (configuration not stated)
80 | ≤ 0.01 | CCOc1c(C(C)n2nc(C)c3c(N)ncnc32)cc(Cl)c(C)c1C1CN(C(=O)c2cnn(C)c2)C1 (configuration not stated)
81 | ≤ 0.01 | COc1c(C(C)n2nc(C)c3c(N)ncnc32)cc(Cl)c(C)c1C1CN(CC2CC2)C1 (configuration not stated)
82 | ≤ 0.01 | CCOc1c(C(C)n2nc(C)c3c(N)ncnc32)cc(Cl)c(C)c1-c1ccc(C(=O)NC)nc1 (configuration not stated)
83 | ≤ 0.01 | CCOc1c(C(C)n2nc(C)c3c(N)ncnc32)cc(Cl)c(C#N)c1C1CNC1 (configuration not stated)
84 | ≤ 0.01 | COc1c(C(C)n2nc(C)c3c(N)ncnc32)cc(Cl)c(C)c1C1CN(C(C)C)C1 (configuration not stated)
85 | ≤ 0.01 | COc1c(C(C)n2nc(C)c3c(N)ncnc32)cc(Cl)c(F)c1C1CN(C)C1 (configuration not stated)
86 | ≤ 0.01 | CCOc1c(C(C)n2nc(C)c3c(N)ncnc32)cc(Cl)c(C#N)c1C1CNC(=O)O1 (configuration not stated)
87 | ≤ 0.01 | COc1c(C(C)n2nc(C)c3c(N)ncnc32)cc(Cl)c(C)c1CCC(=O)N(C)C (configuration not stated)
